In patent publication US20080280933A1, “BENZIMIDAZOLYL COMPOUNDS” (priority 2006, published 2008):
Where two headings read alike, the source gives them in different places.

Target: T1, mGluR2 receptor (metabotropic glutamate receptor 2) (Homo sapiens, UniProt Q14416)
T1 construct: expressed in transfected cells
Experiment: mGluR2 Potentiator Screen, FLIPR, EC10-EC20 glutamate challenge
Format: cell-based
Settings: read-out: EC50
Outline: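 HEK cells stably co-expressing mGluR2 and Gα15, kept glutamine-free overnight, were loaded with Fluo-4 plus probenecid and GPT/pyruvate. Compounds (top 10 μM) were added ≥30 min before an EC10–EC20 glutamate challenge. Peak FLIPR fluorescence ratios were curve-fitted, excluding points above maximal effect, with maxima from on-plate standards.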

[1] = mGluR2 potentiator screen, Table 7

T1 sequence (Q14416 19-872, species assumed): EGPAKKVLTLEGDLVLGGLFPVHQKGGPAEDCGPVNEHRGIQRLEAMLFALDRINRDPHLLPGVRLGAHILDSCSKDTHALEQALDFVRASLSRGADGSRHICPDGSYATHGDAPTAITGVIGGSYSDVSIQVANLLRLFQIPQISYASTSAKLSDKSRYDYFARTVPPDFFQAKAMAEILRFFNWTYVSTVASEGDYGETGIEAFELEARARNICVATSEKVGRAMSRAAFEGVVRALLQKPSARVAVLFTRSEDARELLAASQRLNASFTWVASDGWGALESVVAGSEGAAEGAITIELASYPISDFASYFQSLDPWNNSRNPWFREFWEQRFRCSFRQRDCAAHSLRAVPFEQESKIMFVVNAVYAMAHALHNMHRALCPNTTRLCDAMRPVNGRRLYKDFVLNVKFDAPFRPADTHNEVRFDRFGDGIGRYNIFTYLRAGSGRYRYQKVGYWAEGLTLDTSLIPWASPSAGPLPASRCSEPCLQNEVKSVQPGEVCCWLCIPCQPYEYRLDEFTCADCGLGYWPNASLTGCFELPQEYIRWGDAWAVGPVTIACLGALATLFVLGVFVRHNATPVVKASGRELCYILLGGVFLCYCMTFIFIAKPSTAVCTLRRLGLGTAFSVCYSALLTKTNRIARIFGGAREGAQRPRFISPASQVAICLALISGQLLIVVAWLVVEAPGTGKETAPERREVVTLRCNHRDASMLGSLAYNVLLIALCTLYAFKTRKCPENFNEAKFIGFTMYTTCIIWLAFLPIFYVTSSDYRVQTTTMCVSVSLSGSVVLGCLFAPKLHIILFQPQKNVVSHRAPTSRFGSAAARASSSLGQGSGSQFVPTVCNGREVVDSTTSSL

EC50 [1]	SMILES	EC50
4100 nM	Cn1c(CN2CCC(c3ccccc3)C2)nc2ccccc21 (centres unmarked) [compound 151]	–
371 nM	Cn1c(CN2CCC(c3ccccc3Cl)C2)nc2ccccc21 (centres unmarked) [compound 152]	–
285 nM	COc1ccc(OC)c(C2CCN(Cc3nc4ccccc4n3C)C2)c1 (centres unmarked) [compound 154]	–
1650 nM	Cn1c(CN2CCC(c3ccc(F)cc3)C2)nc2ccccc21 (centres unmarked) [compound 155]	–
865 nM	Cn1c(CN2CCC(Cc3ccccc3)C2)nc2ccccc21 (centres unmarked) [compound 158]	–
144 nM	Cn1c(CN2CCC(c3ccccc3Cl)CC2)nc2ccccc21 [compound 161]	–
254 nM	Cn1c(CN2CCC(c3cccc(C(F)(F)F)c3)CC2)nc2ccccc21 [compound 162]	–
928 nM	COc1ccc(OC)c(C2CCN(Cc3nc4ccccc4n3C)CC2)c1 [compound 163]	–
4380 nM	Cn1c(CN2CCC(c3cccc(C(F)(F)F)c3)C(O)C2)nc2ccccc21 (centres unmarked) [compound 167]	–
1200 nM	Cn1c(CN2CC[C@@H]3c4ccccc4CC[C@@H]3C2)nc2c(Br)cccc21 [compound 168]	–
1230 nM	COc1ccccc1C1CCN(Cc2nc3c(Br)cccc3n2C)CC1 [compound 169]	–
7550 nM	COc1cccc2c1CC[C@H]1CN(Cc3nc4ccccc4n3C)CC[C@H]21 [compound 171]	–
8.28 nM	Cn1c(CN2CCC(c3cc(Cl)ccc3F)CC2)nc2ccccc21 [compound 172]	–
447 nM	CC[C@H](C)COc1ccc(Cl)cc1C1CCN(Cc2nc3ccccc3n2C)CC1 [compound 174]	–

Second part, the compound before the results:

SMILES	EC50 [1]	EC50
CCC(C)CN1CC2(CCN(Cc3nc4ccccc4n3C)CC2)c2cc(C)ccc21 (centres unmarked) [compound 141]	–	5670 nM
Cc1ccc2c(c1)C1(CCN(Cc3nc4ccccc4n3C)CC1)CN2CC1CC1 [compound 142]	–	3020 nM
Cc1ccc2c(c1)C1(CCN(Cc3nc4ccccc4n3C)CC1)CN2 [compound 143]	–	> 8670 nM
CCCN1CC2(CCN(Cc3nc4ccccc4n3C)CC2)c2cc(C)ccc21 [compound 144]	–	2370 nM
CCCN1CC2(CCN(Cc3nc4ccccc4n3C)CC2)c2cc(C)cc(C)c21 [compound 145]	–	2690 nM
Cc1ccc2c(c1)C1(CCN(Cc3nc4ccccc4n3C)CC1)CN2C [compound 146]	–	1670 nM
Cc1cc(C)c2c(c1)C1(CCN(Cc3nc4ccccc4n3C)CC1)CN2 [compound 147]	–	5810 nM
CCC(C)CN1CC2(CCN(Cc3nc4ccccc4n3C)CC2)c2cc(C)cc(C)c21 (centres unmarked) [compound 148]	–	4730 nM
CCCCN1CC2(CCN(Cc3nc4ccccc4n3C)CC2)c2cc(C)cc(C)c21 [compound 149]	1640 nM	–
COC(=O)[C@H]1CN(Cc2nc3ccccc3n2C)C[C@@H]1c1ccc(C(F)(F)F)cc1 [compound 153]	4790 nM	–
COC(=O)[C@H]1CN(Cc2nc3ccccc3n2C)C[C@@H]1c1ccc(Cl)cc1 [compound 156]	8550 nM	–
Cn1c(CN2CCC(c3ccccc3F)CC2)nc2c(Br)cccc21 [compound 157]	836 nM	–
Cn1c(CN2CCC(c3ccccc3Cl)CC2)nc2c(Br)cccc21 [compound 160]	862 nM	–
Cn1c(CN2CCC(c3ccc(C(F)(F)F)cc3)CC2)nc2c(Br)cccc21 [compound 164]	838 nM	–
COc1ccc(OC)c(C2CCN(Cc3nc4c(Br)cccc4n3C)CC2)c1 [compound 165]	2660 nM	–
Cn1c(CN2CCC(c3ccc(C(F)(F)F)cc3)CC2)nc2ccccc21 [compound 166]	77.8 nM	–
Cn1c(CN2CCC(c3cccc4ccc(C(N)=O)cc34)CC2)nc2c(Br)cccc21 [compound 170]	8090 nM	–
CC[C@H](C)COc1ccc(Cl)cc1C1CCN(Cc2nc3ccccc3n2CCF)CC1 [compound 173]	1700 nM	–
CC[C@H](C)COc1ccc(Cl)cc1C1CCN(Cc2nc3ccccc3n2CF)CC1 [compound 175]	8760 nM	–
CC[C@H](C)COc1ccc(Cl)cc1C1CCN(Cc2nc3ccccc3n2CCOC)CC1 [compound 176]	1340 nM	–
CC(C)COc1ccc(Cl)cc1C1CCN(Cc2nc3ccccc3n2CF)CC1 [compound 177]	3470 nM	–
